Experimental data as given in patent US8785400B2, “Methods and compositions relating to islet cell neogenesis” (CureDM Group Holdings, LLC, priority 2006, dated 2014).

Test system: human cell cultures (mixed islets and ductal tissue cultures)
Experiment: Insulin content by RIA, mixed human islet and ductal cultures (Example 2)
Type: cell-based
Details: vs HIP1, HIP, hamster INGAP, saline; FIG. 3
Method: HIP2, HIP1, HIP, controls and progenitor fractions were cultured over 10 days, according to standard protocol. Briefly, pancreata from adult human cadaveric organ donors were obtained through the local organ procurement organization. Islets were isolated according to established protocols described by Bonner-Weir and Jamal. (Bonner-Weir et al. Pediatric Diabetes: 2004; 5 (Suppl 2): 16-22. Jamal et al. Cell Death Differ. 2005 July; 12(7): 702-12). HIP2, HIP1, HIP and INGAP were synthesized by Bachem Bioscience, Malvern, Pa. and were quality tested by HPCL to be greater than 95% pure. Each peptide was provided in lyophilized powder and was resuspended in isotonic saline solution. Stock solutions were made so that only 1-2 ul aliquots were added to primary cell cultures to reach the final concentrations provided below. Stock solutions were frozen and thawed a total of three times for the six day treatment. […]
Pancreata from adult human cadaveric organ donors were obtained through the local organ procurement organization. […] Free islets with diameters ranging from 75 to 400 μm, determined to be greater than 90% pure by staining with dithizone (Sigma) a zinc chelater, were collected and washed. […]
Insulin levels were detected by Radioimmunoassay (RIA) from cultures treated with saline only (s/0), HIP2, HIP1, HIP and hamster INGAP. […]

“HIP2: Human proIslet Peptide, fragment of human REG3A, in purified, synthetic, or recombinant form (SEQ ID NO:4) (IGLHDPTQGTEPNG; Fragment of naturally occurring human REG3 protein)” was tested, and the “increased bioactivity over the other agents used (insulin, RIA)” value was 1.50-3.33 fold.
